Laboratory results published in patent US20180256537A1, “METHODS FOR SURVIVAL AND REJUVENATION OF DERMAL FIBROBLASTS USING PKC ACTIVATORS” (priority 2015, published 2018).
Where two headings read alike, the source gives them in different places.

Legend:
[1] = tested on: squamous cell carcinoma and melanoma; conditions: used topically; cited from earlier work
human skin fibroblasts [2] = test: Protection of human skin fibroblasts under serum starvation (microscopy); type: cell-based; conditions: for viability and cellular integrity, with or without Erk inhibitor: serum deprived culture 5 days
Protocol: Skin fibroblast samples AG09555 (isolated and banked from a healthy person) and AG04560 (isolated and banked from a healthy person; Aging Cell Culture Repository of the National Institute on Aging) were obtained from the Coriell Institute for Medical Research (Camden, N.J.). Fresh fibroblasts were isolated from a skin punch biopsy (2-3 mm, upper arm) from a healthy subject (0078F45). The skin biopsy was conducted by qualified personnel under the supervision of Dr. Shirley Neitch with IRB approval of Marshall University (Huntington, W. Va.). All subjects signed informed consent forms under Marshal University rules and regulations. The method for isolating fibroblasts from skin biopsies was similar to the method previously described (Zhao et al, 2002; Khan and Alkon, 2006).
(§1) Primary skin fibroblasts isolated from skin biopsies were maintained in Dulbecco's Modified Eagle Medium (DMEM) with low glucose (Invitrogen, Grand Island, N.Y.) supplemented with 10% FBS in 6-well culture dishes (37° C., 5% CO2, 90% humidity) until the cells reached 90-100% confluence. Cells were cultured in completely serum-free medium to simulate stress conditions. After culture in serum-free media for 24 hours, cells were treated with vehicle, 0.3 nM bryostatin1, or 5 nM picolog. […] Nanomolar concentrations of picolog were previously found to be effective for cellular activation (Khan et al, 2009). The condition of the cultured skin fibroblasts was monitored with an inverted cell culture microscope (Westover Digital AMID Model 2000, Westover Scientific, Bothell, Wash.), controlled by a computer and images were captured with image acquisition software (Micron 2.0.0, Westover Scientific).

Erk1/2 [3] = test: Immunoblot analysis of Erk activation in serum-deprived fibroblasts; type: cell-based, human
Protocol: as §1
(§2) Protein lysates (20 μg of protein each) were boiled in 2× Laemmli buffer for 10 min and separated using a 10% […] Tris-Glycine gel (or 4-20% gradient Tris-Glycine gel for caspase-8). […] Signal intensities of the images were recorded in the ImageQuant RT-ECL (GE Life Sciences, Piscataway, N.J.) and densitometric quantification was performed using the IMAL software (Blanchette Rockefeller Neurosciences Institute, Morgantown, W. Va.). […]

human skin fibroblasts [4] = test: Cell viability test by MTT assay; type: cell-based; conditions: 5 nM, serum starvation 15 days, versus untreated cells
Protocol: as §1
Cell viability assay was conducted by measuring 3-(4,5-dimethylthiazol-2-yl)-2,5-diphenyltetrazolium (MTT) bromide dye absorbance. After treatment, cells were labeled with MTT and dissolved by adding SDS-HCl solution to each well and mixing thoroughly with a pipette tip. Absorbance was read at 570 nm using a microplate reader. Data were presented in terms of relative cell viability.

PKC [5] = conditions: Table 1, bryologs; read-out: PKC Affin; cited from earlier work
PKC [6] = conditions: [3H] phorbol dibutyrate competition; cited from earlier work
NCI 60 cell line screen = conditions: cited from earlier work
Erk1/2 [7] = conditions: RasGRP3-dependent manner; cited from earlier work
[8] = tested on: matrix metalloproteins 1, 3, 9, 10 and 11 (MMP's); conditions: cited from earlier work
[9] = tested on: human skin equivalents (HSEs); test: Cell survival within human skin equivalents (HSEs); type: cell-based
Protocol: The Clonetics™ keratinocyte system containing normal adult human epidermal keratinocytes (NHEK) was used as source of epidermal keratinocytes (Lonza, Walkersville, Md.). Human adult epidermal keratinocyte cells were cultured in keratinocyte basal medium supplemented with appropriate growth factors (Clonetics KGM-Gold™ BulletKit™ [cat#00192060] contains one 500 ml bottle of keratinocyte basal medium-gold supplemented with bovine pituitary extract (BPE), 2 ml; hEGF, 0.5 ml; insulin, 0.5 ml; hydrocortisone, 0.5 ml; transferrin, 0.5 ml; epinephrine, 0.25 ml; GA-1000, 0.5 ml) in T25 culture flasks in an incubator at 37° C., 5% CO2, and 90% humidity. The growth medium was changed the day after seeding and every other day thereafter. Keratinocytes were used up to 18 population doublings. All cell preparations tested negative for mycoplasma, bacteria, yeast, and fungi. The condition of the skin keratinocytes was monitored with an inverted cell culture microscope (Westover Digital AMID Model 2000, Westover Scientific), controlled by a computer and images were captured using image acquisition software (Micron 2.0.0, Westover Scientific).
HSEs have been used commercially as clinical skin substitutes (Orcel® from FortiCell Bioscience, Englewood Cliffs, N.J.; FDA approved in 2001/2008; Apligraf® from Genzyme Tissue Repair Corporation, Cambridge, Mass., FDA approved in 2007) and as in vitro models for skin biochemical tests and toxicity tests (Mertsching et al, 2008; Zhang and Michniak-Kohn, 2012). We engineered an HSE composed of both epidermal and dermal layers; keratinocytes and fibroblasts were utilized to prepare the bilayer structures (Shevchenko et al, 2010). Dermal fibroblasts were cultured on a 6-well collagen-coated surface (Biocoat Cell Environment, Becton Dickinson, Bedford, UK) or BD BIOCOAT™ plates (BD Biosciences, San Jose, Calif.). Fibroblast cells were maintained in DMEM with low glucose (Invitrogen) supplemented with 10% FBS, and were grown to 100% confluence. Culture medium was removed and the cells were washed three times with DMEM (without serum) to remove all growth factors. Previously cultured epidermal keratinocytes were added to the fibroblasts as the second layer (FIG. 1). […] The condition of the HSEs was monitored with an inverted cell culture microscope (Westover Digital AMID Model 2000, Westover Scientific), controlled by a computer and images were captured via image acquisition software (Micron 2.0.0, Westover Scientific).

caspase-8 = test: Immunoblot analysis of caspase-8 expression in dermal fibroblasts; type: cell-based, human
Protocol: as §1, §2

[10] = cited from earlier work
protein kinase C = conditions: (−)-enantiomer; cited from earlier work
[11] = cited from earlier work; remark: listed apart in the source
PKC [12] = conditions: cited from earlier work

C/C=C(/C)C(=O)O[C@H]1C(C)=C[C@]23C(=O)[C@@H](C=C(CO)[C@@H](O)[C@]12O)[C@H]1[C@@H](C[C@H]3C)C1(C)C [Ingenol-3-angelate]
antitumor activity [1]: exhibits antitumor activity

COc1cccc(-c2cc(=O)c3ccccc3o2)c1N [PD98059]
viability and cellular integrity, with or without Erk inhibitor (human skin fibroblasts [2]): lowered the cell protective effects of bryostatin-1 | effect on bryostatin-1 induced Erk activation (Erk1/2 [3]; PD98059 30 μM with bryostatin-1): significantly blocked

CCCCCCCC(=O)O[C@H]1/C(=C/C(=O)OC)CC2C[C@H](CO)OC(=O)C[C@H](O)C[C@@H]3CCC[C@H](C[C@@H]4CCO[C@H](/C=C/C(C)(C)[C@]1(O)O2)O4)O3 [picolog]
cell survival of human skin fibroblasts (human skin fibroblasts [2]; 5 nM, serum free, 15 days): increased cell survival | relative cell viability (MTT) (human skin fibroblasts [4]): increased the relative viability of fibroblast cells

CCCCCCCC(=O)O[C@H]1/C(=C/C(=O)OC)C[C@H]2C[C@H](CO)OC(=O)C[C@H](O)C[C@@H]3CCC[C@H](C[C@@H]4CCO[C@H](/C=C/C(C)(C)[C@]1(O)O2)O4)O3 [Analog 1]
Ki (PKC [5]): 0.25 nM

CC1=C[C@]23C(=O)[C@@H](C=C(COC(=O)c4ccccc4)[C@@H](O)[C@]2(O)[C@H]1OC(=O)c1ccccc1)[C@H]1[C@@H](C[C@H]3C)C1(C)C [Ingenol 3,20-dibenzoate]
Ki (PKC [6]): 240 nM

CC1=CC[C@H](C)C(C)(C)[C@@H]1/C=C/C(C)=C/CC[C@@]1(CO)[C@H](CCCO)/C(=C(/C)C=O)CC[C@]1(C)O [Iripallidal]
GI50 (concentration required to inhibit growth by 50%) (NCI 60 cell line screen): micromolar to nanomolar range | phosphorylation of Erk1/2 (Erk1/2 [7]): induces phosphorylation of Erk1/2

CCC/C=C/C=C/C(=O)O[C@H]1/C(=C/C(=O)OC)C[C@H]2C[C@H]([C@@H](C)O)OC(=O)C[C@H](O)C[C@@H]3C[C@H](OC(C)=O)C(C)(C)C(O)(C[C@@H]4C/C(=C/C(=O)OC)C[C@H](/C=C/C(C)(C)[C@]1(O)O2)O4)O3 [Bryostatin-1]
cellular integrity of freshly isolated fibroblasts (human skin fibroblasts [2]; 0.3 nM, 5 days serum-free, 6-well plates): healthy and appear to be normal | percentage of viable fibroblasts (human skin fibroblasts [2]; 0.3 nM, 5 days serum-free, treated versus control group): lower percentage of viable fibroblast in the control group | loss of dermal fibroblast cells (human skin fibroblasts [2]; 0.3 nM, 15 days serum free culture): no significant loss of dermal fibroblast cells | structural integrity and number of viable cells (human skin fibroblasts [2]; 0.3 nM, 35 days serum free culture, versus control group): greater structural integrity and a higher number of live, viable cells | cellular integrity of collagen matrix supported fibroblasts (human skin fibroblasts [2]; 25 days serum-starved): maintains the cellular integrity | viability and cellular integrity, with or without Erk inhibitor (human skin fibroblasts [2]): showed the greatest viability and good cellular integrity | survival of banked skin fibroblasts (human skin fibroblasts [2]; sub-nanomolar amounts, 20 days serum starved): prevented the death of human skin fibroblasts | production of matrix metalloproteins 1, 3, 9, 10 and 11 [8]: inhibits the production | protective effect in HSEs over time ([9]; 9 days versus 12 days in culture): decreases as a function of time | fibroblast survival and viability in HSEs versus untreated ([9]; single dose and two dose treated HSEs): significantly greater | fibroblast cell death in HSEs ([9]; single treatment 0.3 nM, versus untreated HSEs): showed fewer dead fibroblast cells overall | survival of fibroblast cells in HSEs, two doses versus single dose ([9]; two doses (0.3 nm) versus single 0.3 nM dose): greater than fibroblasts in HSEs receiving a single 0.3 nM dose | caspase-8 expression levels, time course (caspase-8; after 3 days of treatment): greatest decrease | caspase-8 expression levels in cell lysate (caspase-8; treated versus control fibroblasts): reduced expression levels of caspase-8 | toxicity ([10]; 20 μg/week): no toxicity | adverse effect ([10]; more than 35 μg/week): may be associated with muscle pain | activation of Erk1/2 (p-Erk/Erk) (Erk1/2 [3]; 0.3 nM, serum-free conditions): induced activation of Erk1/2

Octylindolactam V
EC50 (protein kinase C): 29 nM

CCC/C=C/C=C/C(=O)O[C@H]1/C(=C/C(=O)OC)C[C@H]2C[C@H]([C@@H](C)O)OC(=O)C[C@H](O)C[C@@H]3C[C@H](OC(C)=O)C(C)(C)[C@](O)(C[C@@H]4C/C(=C/C(=O)OC)C[C@H](/C=C/C(C)(C)[C@]1(O)O2)O4)O3 [Bryostatin-1]
time detectable in the blood ([11]; after a single injection): 14 days | half-life (t1/2) in the blood stream ([11]; blood): 1 h | crossing of the blood-brain barrier ([11]; in vivo): crosses the blood-brain barrier | share of initial dose in the blood ([11]; intravenous injection, at 100 hrs): 1%

CCC1CC1CC1CC1CC1CC1CC1CC1CC1CC1CC1CC1CCC(=O)OC (centres unmarked) [DHA-CP6, cyclopropanated docosahexaenoic acid methyl ester]
effective concentration (PKC [12]): 10 nM
